Experimental data from publication PMC7054097, “Vanillin Production in Pseudomonas: Whole-Genome Sequencing of Pseudomonas sp. Strain 9.1 and Reannotation of Pseudomonas putida CalA as a Vanillin Reductase” (Applied and Environmental Microbiology, 2020).

What was measured:
[1] = target: T1, PP_3839 (adhP) gene product; calA-II (coniferyl alcohol dehydrogenase) (Pseudomonas putida, UniProt Q88G86); experiment: soluble cell extract, absorbance at […] nm; type: biochemical; settings: 0.5 mM NAD+, 1 mM coniferyl alcohol, 33 mM sodium phosphate pH 7, 30 °C
T1 construct: whole cells or soluble extract
T1 sequence (Q88G86 1-336): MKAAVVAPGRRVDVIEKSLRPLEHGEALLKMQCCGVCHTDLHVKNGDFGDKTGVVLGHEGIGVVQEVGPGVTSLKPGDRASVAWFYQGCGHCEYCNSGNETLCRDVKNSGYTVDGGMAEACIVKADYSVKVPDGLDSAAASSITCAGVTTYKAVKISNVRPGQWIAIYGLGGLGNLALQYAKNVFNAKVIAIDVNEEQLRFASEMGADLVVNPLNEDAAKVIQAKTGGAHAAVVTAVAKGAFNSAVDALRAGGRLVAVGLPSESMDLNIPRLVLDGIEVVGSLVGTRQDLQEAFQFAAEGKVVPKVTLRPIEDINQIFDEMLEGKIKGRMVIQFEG

[2] = target: T1, PP_3839 (adhP) gene product; calA-II (coniferyl alcohol dehydrogenase); experiment: soluble cell extract, absorbance at […] nm; also whole-cell HPLC; type: biochemical; settings: 1 mM substrate, 0.5 mM NAD+, 33 mM sodium phosphate pH 7, 30 °C

| SMILES | soluble cell extract, absorbance at 365 nm [1] | soluble cell extract, absorbance at 365 nm; also whole-cell HPLC [2] |
| --- | --- | --- |
| NC(=O)c1ccc[n+]([C@@H]2O[C@H](COP(=O)(O)OP(=O)(O)OC[C@H]3O[C@@H](n4cnc5c(N)ncnc54)[C@H](O)[C@@H]3O)[C@@H](O)[C@H]2O)c1 [NAD^+] | coniferyl alcohol was rapidly oxidized in the presence of NAD^+ |  |
| COc1cc(/C=C/CO)ccc1O [coniferyl alcohol] |  | coniferyl alcohol was rapidly oxidized in the presence of NAD^+ |
